# Laboratory results published in EP0947511A1, “Derivatives of phenoxy acetic acid and of phenoxymethyl tetrazole having antitumor activity” (F. HOFFMANN-LA ROCHE AG, priority 1998, dated 1999).
# Assays:
# [1] = target: HT29 cytosolic GST (Homo sapiens, UniProt P09211); assay: Spectrophotometric GST activity analysis; assay type: biochemical; conditions: inhibition of GST activity in HT29 cells
# Method: GST catalyzes the conjugation of CDNB with glutathione and results in a CDNB-glutathione product with a strong molar absorption at 340 nm. The change of absorption is monitored for 5 min.
# 1 x 10^6 cells are collected and washed once with ice-cold phosphate-buffered saline at 1000 rpm for 10 min at 4°C. Cell pellets are resuspended in 200 µl ice-cold phosphate-buffered saline, and are sonicated for 2 min on ice. The sonicate is then centrifuged at 11750 g, 4°C for 15 min in an Eppendorf Centrifuge, and the supernatant is assayed for GST activity.
# [2] = system: MCF-7ADR; assay: Radiosensitizing activity of MDM2 antagonistic compounds, MCF-7ADR cells; assay type: cell-based, human; conditions: MCF-7 ADR cells (mutant p53, high GST content)
# Method: Biologic assay for radiosensitizing activity of MDM2 antagonistic compounds: Human tumor cell lines containing wild-type p53 and low levels of GST, such as MCF7 (breast carcinoma) or mutant p53 and a high GST content, such as MCF7 ADR (adriamycin-resistant breast carcinoma) are cultivated in RPMI medium, supplemented with 10% fetal calf serum to a semi-confluent state.
# In order to determine the radiosensitizing activity of selected compounds on these cells a minimal toxic dose was determined as 2Gy with a ^137Cesium source at room temperature. Following irradiation of monolayer cells in exponential growth phase with 2 Gy, cells were incubated with various concentrations of the selected compounds for 2-6 h. Cells were trypsinized and seeded in appropriate dilutions into 6 well plates. Surviving cells were trypsinized after 12-13 days and cell number was determined by staining with trypane blue for living/dead cells. The protocol was established according to Khil et al., 1996, Int. J. Rad. Oncol. Biol. Phys. 34, 375-380.
# Chain of HT29 cytosolic GST (P09211 2-210): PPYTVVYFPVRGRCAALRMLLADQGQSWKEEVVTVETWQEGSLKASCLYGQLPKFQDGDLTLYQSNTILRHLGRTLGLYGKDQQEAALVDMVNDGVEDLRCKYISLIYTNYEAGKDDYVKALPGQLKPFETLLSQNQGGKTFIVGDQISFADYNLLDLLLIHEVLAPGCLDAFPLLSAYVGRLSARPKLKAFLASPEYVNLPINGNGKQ
SMILES,IC-50 [1],radiosensitization [2]
"O=C(O)COc1ccc(C(=O)/C=C/c2ccc(Cl)c(Cl)c2)cc1 [LSM 83177, 3,4-dichloro-4'-(carboxymethoxy)chalcone]","7,7 µg/ml",leads to a radiosensitization in MCF-7 ADR cells
"C=C(CC)C(=O)c1ccc(OCC(=O)O)c(Cl)c1Cl [ethacrynic acid, reference compound]",,does not mediate any radiosensitization
